The record followed here is patent US8507502B2, “Fused bicyclic and tricyclic pyrimidine compounds as tyrosine kinase inhibitors” (National Health Research Institutes, priority 2008, dated 2013).

Read-outs that look alike come from different tables or passages of the source.

One experiment deals with T1, GST-EGFR-KD^L858R/T790M (Homo sapiens, UniProt P00533, L858R/T790M).
T1 construct: residues from 696 to 1022 and with L858R/T790M; made in house; host or cells: Sf9 insect cells (baculovirus)
The experiment in a line: Double mutant EGFR kinase assay (Kinase-Glo). Format: biochemical. Particulars: 1 μM ATP, read-out: IC50 (concentration at which activity of 50% of mutant EGFR is inhibited).

In a further experiment the test system is HCC827 cells. The experiment in a line: HCC827 cell viability, MTS assay. Format: cell-based. Particulars: Homo sapiens, 96-h incubation, read-out: IC50 (concentration which causes 50% of the cell death). Background: Tetrazolium assays rely on reduction of a dye to a coloured formazan, in cell work by metabolically active cells.
The target of another experiment is T2, GST-EGFR-KD^WT (Homo sapiens, UniProt P00533).
T2 construct: 50 ng GST-EGFR-KD^WT proteins; made in house
T2 sequence (P00533 712-979 limits assumed): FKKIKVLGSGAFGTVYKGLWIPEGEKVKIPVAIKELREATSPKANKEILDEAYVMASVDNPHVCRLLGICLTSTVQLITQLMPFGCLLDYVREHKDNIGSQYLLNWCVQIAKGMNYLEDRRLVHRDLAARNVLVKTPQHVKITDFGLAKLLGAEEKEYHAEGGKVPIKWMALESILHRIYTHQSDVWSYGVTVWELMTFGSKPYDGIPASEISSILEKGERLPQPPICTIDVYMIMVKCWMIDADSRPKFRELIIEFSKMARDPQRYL
The experiment in a line: EGFR kinase assay (Kinase-Glo). Particulars: 5 μM ATP, read-out: IC50 (concentration at which activity of 50% of EGFR is inhibited). The experiment is classed as biochemical. Background: Kinase-Glo reads ATP consumption through a luciferase reaction.

The test system of another experiment is HCC827. Description: In vivo anticancer activity, lung cancer xenograft mice (injected with HCC827). Details: species or system nude mice. Conditions: for tumor size relative to that of the vehicle controls: days 1-5 and 8-12, 22nd day post treatment. On the procedure:
In vivo efficacy of the compounds of this invention was assessed using lung cancer xenograft mice (injected with HCC827), as described in Cancer Research 2004, 64, 4621-4628.
HCC827 cells were injected via s.c. in nude mice to form lung cancer xenograft mice. Mice bearing tumor with a size of ˜100 mm^3 were randomly assigned to two groups: a vehicle control group (10 mice), and a treatment group (21 mice). Of the treated mice, 21 received Compound 62 at a daily dosage of 5 mg/kg and 15 mg/kg via IV injection through the tail veins for 5 days/week for 2 consecutive weeks (days 1-5 and 8-12).

T1 sequence (P00533 696-1022 T790M/L858R): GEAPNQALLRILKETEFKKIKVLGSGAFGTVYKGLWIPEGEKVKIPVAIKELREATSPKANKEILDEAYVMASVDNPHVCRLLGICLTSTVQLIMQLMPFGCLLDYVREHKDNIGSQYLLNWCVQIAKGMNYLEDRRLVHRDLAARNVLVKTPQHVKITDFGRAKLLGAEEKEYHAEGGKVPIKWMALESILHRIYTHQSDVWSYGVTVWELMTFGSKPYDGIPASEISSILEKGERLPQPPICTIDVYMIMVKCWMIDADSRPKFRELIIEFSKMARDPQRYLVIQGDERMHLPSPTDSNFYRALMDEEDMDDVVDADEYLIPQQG
Protocol for GST-EGFR-KD^L858R/T790M: Following incubation, 50 μL Kinase-Glo Plus Reagent (Promega) was added and the mixture was incubated at 25° C. for 20 min.
Protocol for GST-EGFR-KD^WT: Following incubation, 50 μl Kinase-Glo Plus Reagent (Promega) was added and the mixture was further incubated at 25° C. for 20 min.
Protocol for HCC827 cells: HCC827 cell viability was examined by the MTS assay (Promega, Madison, Wis., USA). 1000 HCC827 cells in 100 μl RPMI1640 with 10% FBS medium were seeded in each well of a 96-well plate. After 96-h incubation with a test compound, the cells were further incubated with 20 μl of a MTS/PMS mixture (MTS/PMS ratio: 20:1) in each well of the 96-well plate for 2 h at 37° C. in a humidified incubator with 5% CO2 to allow viable cells to convert the tetrazolium salt (MTS) into formazan. The amount/concentration of formazan, which indicates the number of live cells, was determined by measuring its absorbance at 490 nm using a PerkinElmer Victor2 plate reader (PerkinElmer, Shelton, Conn., USA).

In the case of `C=CC(=O)N1CCc2c(sc3ncnc(N[C@H](CO)c4ccccc4)c23)C1` [Compound 12, 1-[4-(2-hydroxy-1-phenyl-ethylamino)-5,8-dihydro-6H-9-thia-1,3,7-triaza-fluoren-7-yl]-propenone], the figures for the IC50 at GST-EGFR-KD^L858R/T790M, in the experiment on HCC827 cells and at GST-EGFR-KD^WT were 10 to 499 nM, 1 to 99 nM and less than 59 nM, respectively.
Consider `CN(C)C/C=C/C(=O)N1CCc2c(sc3ncnc(N[C@H](CO)c4ccccc4)c23)C1` [Compound 62], for which the values for the IC50 at GST-EGFR-KD^L858R/T790M, in the experiment with HCC827 cells and on GST-EGFR-KD^WT were 10 to 499 nM, 1 to 99 nM and less than 59 nM, respectively. The results for the “tumor size relative to that of the vehicle controls” value in the experiment with HCC827 (5 mg/kg daily IV) and in the experiment with HCC827 (15 mg/kg daily IV) were 39% and 23%, respectively. For the same compound, the tumor growth suppression entry in the experiment on HCC827 (5 and 15 mg/kg IV, p<0.05) is given as “suppressed tumor growth significantly”.
For `C=CS(=O)(=O)N1CCc2c(sc3ncnc(N[C@H](CO)c4ccccc4)c23)C1` [Compound 63], the IC50 on GST-EGFR-KD^L858R/T790M lay within 500 to 2500 nM; with HCC827 cells it was 100 to 300 nM; on GST-EGFR-KD^WT, 60 to 100 nM.
The matching figures for `C=CC(=O)N1CCc2c(sc3ncnc(N[C@H](C)c4ccccc4)c23)C1` [Compound 64]: 500 to 2500 nM, 1 to 99 nM and less than 59 nM.
Consider `O=C(/C=C/CN1CCCCC1)N1CCc2c(sc3ncnc(N[C@H](CO)c4ccccc4)c23)C1` [Compound 65], for which the IC50 at GST-EGFR-KD^L858R/T790M was 500 to 2500 nM; in the experiment with HCC827 cells, 1 to 99 nM; at GST-EGFR-KD^WT, less than 59 nM.
In the case of `O=C(/C=C/CN1CCOCC1)N1CCc2c(sc3ncnc(N[C@H](CO)c4ccccc4)c23)C1` [Compound 66], the IC50 on GST-EGFR-KD^L858R/T790M is 500 to 2500 nM; in the experiment with HCC827 cells it was 1 to 99 nM; at GST-EGFR-KD^WT, less than 59 nM.
The matching figures for `CN1CCN(C/C=C/C(=O)N2CCc3c(sc4ncnc(N[C@H](CO)c5ccccc5)c34)C2)CC1` [Compound 67]: 500 to 2500 nM, 1 to 99 nM and less than 59 nM.
The matching figures for `CCN(CC)C/C=C/C(=O)N1CCc2c(sc3ncnc(N[C@H](CO)c4ccccc4)c23)C1` [Compound 75]: 500 to 2500 nM, 1 to 99 nM and less than 59 nM.
The matching figures for `C=CC(=O)N1CCc2c(sc3ncnc(N[C@H](CC)c4ccccc4)c23)C1` [Compound 106]: 500 to 2500 nM, 1 to 99 nM and less than 59 nM.
For `C=CC(=O)N1CCc2c(sc3ncnc(N[C@H](CCO)c4ccccc4)c23)C1` [Compound 176], the IC50 at GST-EGFR-KD^L858R/T790M is 10 to 499 nM; in the experiment with HCC827 cells it was 1 to 99 nM; on GST-EGFR-KD^WT, less than 59 nM.
Take `C[C@@H](Nc1ncnc2sc3c(c12)CCN(C(=O)/C=C/CN(C)C)C3)c1ccccc1` [Compound 178]: the IC50 at GST-EGFR-KD^L858R/T790M was 500 to 2500 nM; in the experiment on HCC827 cells, 1 to 99 nM; on GST-EGFR-KD^WT, less than 59 nM.
For the compound `C=CC(=O)N1CCc2c(sc3ncnc(N[C@H](COC)c4ccccc4)c23)C1` [Compound 185], the values for the IC50 at GST-EGFR-KD^L858R/T790M, in the experiment with HCC827 cells and on GST-EGFR-KD^WT were 10 to 499 nM, 1 to 99 nM and less than 59 nM, respectively.
The matching figures for `CN(C)C/C=C/C(=O)N1CCc2c(sc3ncnc(Nc4ccc(F)c(Cl)c4)c23)C1` [Compound 187]: 10 to 499 nM, 1 to 99 nM and less than 59 nM.
`C=CC(=O)N1CCc2c(sc3ncnc(NC(CCO)c4ccccc4)c23)C1` (centres unmarked) [Compound 188]: the IC50 on GST-EGFR-KD^L858R/T790M lay within 500 to 2500 nM; in the experiment on HCC827 cells, 301 to 999 nM; at GST-EGFR-KD^WT (range given in mixed units) it was 101 to 900 nM.
Take `CCN(CC)C/C=C/C(=O)N1CCc2c(sc3ncnc(N[C@H](C)c4ccccc4)c23)C1` [Compound 190]: the IC50 is 500 to 2500 nM on GST-EGFR-KD^L858R/T790M, 1 to 99 nM in the experiment on HCC827 cells and less than 59 nM on GST-EGFR-KD^WT.
The matching figures for `CC[C@@H](Nc1ncnc2sc3c(c12)CCN(C(=O)/C=C/CN(CC)CC)C3)c1ccccc1` [Compound 191]: 500 to 2500 nM, 1 to 99 nM and less than 59 nM.
The matching figures for `C=CC(=O)N1CCc2c(sc3ncnc(N[C@H](CO)Cc4ccccc4)c23)C1` [Compound 193]: 500 to 2500 nM, 301 to 999 nM and less than 59 nM.
Consider `C=CC(=O)N1CCc2c(sc3ncnc(N[C@H](COCc4ccccc4)c4ccccc4)c23)C1` [Compound 195], for which the values for the IC50 at GST-EGFR-KD^L858R/T790M, in the experiment with HCC827 cells and on GST-EGFR-KD^WT were 10 to 499 nM, 1 to 99 nM and less than 59 nM, respectively.
Regarding `CN(C)C/C=C/C(=O)N1CCc2c(sc3ncnc(N[C@H](COCc4ccccc4)c4ccccc4)c23)C1` [Compound 198], the IC50 at GST-EGFR-KD^L858R/T790M was 500 to 2500 nM; in the experiment with HCC827 cells, 1 to 99 nM; on GST-EGFR-KD^WT, less than 59 nM.
The matching figures for `C=CC(=O)N1CCc2c(sc3ncnc(N[C@H](COCc4cccc(F)c4)c4ccccc4)c23)C1` [Compound 200]: 10 to 499 nM, 1 to 99 nM and less than 59 nM.
As for `C=CC(=O)N1CCc2c(sc3ncnc(N[C@H](COCc4ccc(C(F)(F)F)cc4)c4ccccc4)c23)C1` [Compound 202], the values for the IC50 on GST-EGFR-KD^L858R/T790M, in the experiment on HCC827 cells and on GST-EGFR-KD^WT were 10 to 499 nM, 100 to 300 nM and less than 59 nM, respectively.
Regarding `CN(C)C/C=C/C(=O)N1CCc2c(sc3ncnc(N[C@H](COCc4ccccn4)c4ccccc4)c23)C1` [Compound 203], the IC50 was 500 to 2500 nM at GST-EGFR-KD^L858R/T790M, 1 to 99 nM with HCC827 cells and less than 59 nM on GST-EGFR-KD^WT.
The matching figures for `CNC/C=C/C(=O)N1CCc2c(sc3ncnc(N[C@H](C)c4ccccc4)c23)C1` [Compound 205]: 500 to 2500 nM, 1 to 99 nM and less than 59 nM.
The matching figures for `CN(C)C/C=C/C(=O)N1CCc2c(sc3ncnc(N[C@H](COCc4cccc(F)c4)c4ccccc4)c23)C1` [Compound 210]: 10 to 499 nM, 1 to 99 nM and less than 59 nM.
As to `C[C@@H](Nc1ncnc2sc3c(c12)CCN(C(=O)/C=C/CNC1CC1)C3)c1ccccc1` [Compound 211], the IC50 at GST-EGFR-KD^L858R/T790M was 500 to 2500 nM; with HCC827 cells it was 1 to 99 nM; on GST-EGFR-KD^WT, less than 59 nM.
The matching figures for `C[C@@H](Nc1ncnc2sc3c(c12)CCN(C(=O)/C=C/CN(CCO)CCO)C3)c1ccccc1` [Compound 215]: 500 to 2500 nM, 1 to 99 nM and less than 59 nM.
The matching figures for `C=CC(=O)N1CCc2c(sc3ncnc(N[C@H](COCc4cccc(OC)c4)c4ccccc4)c23)C1` [Compound 223]: 10 to 499 nM, 1 to 99 nM and less than 59 nM.
Regarding `C=CC(=O)N1CCc2c(sc3ncnc(N[C@H](COCc4cccc([N+](=O)[O-])c4)c4ccccc4)c23)C1` [Compound 226], the IC50 is 10 to 499 nM on GST-EGFR-KD^L858R/T790M, 1 to 99 nM with HCC827 cells and less than 59 nM at GST-EGFR-KD^WT.
The matching figures for `C=CC(=O)N1CCc2c(sc3ncnc(N[C@H](COCc4cccc(C)c4)c4ccccc4)c23)C1` [Compound 227]: 10 to 499 nM, 1 to 99 nM and less than 59 nM.
With `COc1cccc(COC[C@@H](Nc2ncnc3sc4c(c23)CCN(C(=O)/C=C/CN(C)C)C4)c2ccccc2)c1` [Compound 228], the IC50 was 500 to 2500 nM on GST-EGFR-KD^L858R/T790M, 1 to 99 nM with HCC827 cells and less than 59 nM on GST-EGFR-KD^WT.
The matching figures for `CN(C)C/C=C/C(=O)N1CCc2c(sc3ncnc(N[C@H](COCc4ccccc4F)c4ccccc4)c23)C1` [Compound 232]: 500 to 2500 nM, 1 to 99 nM and less than 59 nM.
Take `C=CC(=O)Nc1cccc(-c2c(-c3ccccc3)oc3ncnc(N[C@H](C)c4ccccc4)c23)c1` [Compound 239]: the IC50 on GST-EGFR-KD^L858R/T790M is 500 to 2500 nM; in the experiment with HCC827 cells, 1 to 99 nM; on GST-EGFR-KD^WT (range given in mixed units), 101 to 900 nM.
Regarding `C=CC(=O)Nc1cccc(-c2c(-c3ccccc3)oc3ncnc(N[C@H](COC(=O)C=C)c4ccccc4)c23)c1` [Compound 240], the IC50 on GST-EGFR-KD^L858R/T790M lay in the range of 10 to 499 nM; at GST-EGFR-KD^WT (range given in mixed units), 101 to 900 nM.
With `CC#CC(=O)Nc1cccc(-c2c(-c3ccccc3)oc3ncnc(N[C@H](CO)c4ccccc4)c23)c1` [Compound 241], the IC50 was 500 to 2500 nM on GST-EGFR-KD^L858R/T790M, 1 to 99 nM with HCC827 cells and less than 59 nM on GST-EGFR-KD^WT.
